Like-named read-outs stand apart in the source and are kept apart here.
Assays:
[1] = tested on: maximal electroshock seizure (MES); assay: Maximal electroshock seizure test (MES), mice, intraperitoneal; format: in vivo; conditions: ip;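 further: adult male CF no. 1 albino mice of 18–25 g, given compound intraperitoneally as a 0.5% methylcellulose suspension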
[2] = tested on: subcutaneous metrazol (pentylenetetrazol) seizure; assay: Subcutaneous metrazol seizure threshold test (scMet), mice, intraperitoneal; format: in vivo; conditions: ip;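 further: adult male CF no. 1 albino mice weighing 18-25 g, dosed intraperitoneally with compounds suspended in 0.5% methylcellulose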
[3] = tested on: maximal electroshock seizure (MES); assay: Maximal electroshock seizure test (MES), rats, oral; conditions: for responders at 30 mg/kg / ED50: Rattus norvegicus, po; for responders at 30 mg/kg: read-out: Anti-MES activity (number of animals protected/number of animals tested); for ED50: read-out: MES ED50, rats dosed orally;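 on all read-outs here: adult male Sprague-Dawley rats received test compounds by mouth as a suspension in 0.5% methylcellulose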
Description: (§1) The tested compounds were suspended in 0.5% methylcellulose and administered (a) intraperitioneally (ip) to adult male CF no. 1 albino mice (18-25 g) in volume of 0.01 mL/g body weight and (b) orally to adult male Sprague-Dawley albino rats (100-150 g) in volume of 0.04 mL per 10 g of body weight.
(§2) The TD50 was determined by varying the dose of the tested compounds until four points were established between the dose level that induced no signs of minimal motor impairment in any of the animals and the dose at which all the animals were considered impaired. […] The PIs were calculated by dividing the TD50 by the ED50.

[4] = tested on: subcutaneous metrazol (pentylenetetrazol) seizure; conditions: for PI, protective index (PI = TD50/ED50) in the scMet test: male, Sprague-Dawley, rat, in vivo, po
Description: (§3) The evaluation of the anticonvulsant activity in the maximal electroshock seizure test (MES) and subcutaneous metrazol seizure threshold test (scMet) and the determination of neurotoxicity in the rotorod test, positional sense test, and others were performed according to the protocols described in White, H. S., Woodhead J. H., Wilcox K. S., Stables J. P., Kupferberg H. J., Wolf H. H., Discovery and Preclinical Development of Antiepileptic Drugs; 5th ed.; Lippincott Williams &Wilkins: New york, 2002; 36-48.
(§4) The tested compounds were suspended in 0.5% methylcellulose and administered (a) intraperitioneally (ip) to adult male CF no. 1 albino mice (18-25 g) in volume of 0.01 mL/g body weight and (b) orally to adult male Sprague-Dawley albino rats (100-150 g) in volume of 0.04 mL per 10 g of body weight. The pentylenetetrazol solution at convulsing dose was prepared by sufficient dissolution of pentylenetetrazol in 0.9% saline to make 0.85% solution for administration to mice and a 2.82% solution for administration to rats.
as §2

in vivo = conditions: male, Sprague-Dawley, rat, po
Description: as §1, §2

[5] = tested on: subcutaneous metrazol (pentylenetetrazol) seizure; assay: animal or person; conditions: Rattus norvegicus, po, read-out: scMet ED50
Description: as §3, §4, §2

[6] = 30 mg/kg, 0.5 h after administration
[7] = 30 mg/kg, 4 h after administration
[8] = 100 mg/kg, 0.5 h after administration
[9] = 100 mg/kg, 4 h after administration
[10] = 300 mg/kg, 0.5 h after administration
[11] = 300 mg/kg, 4 h after administration
[12] = interval in parentheses = 95% confidence interval

| SMILES | MES (number of animals protected/number of animals tested) [1, 6] | MES (number of animals protected/number of animals tested) [1, 7] | MES (number of animals protected/number of animals tested) [1, 8] | MES (number of animals protected/number of animals tested) [1, 9] | MES (number of animals protected/number of animals tested) [1, 10] | MES (number of animals protected/number of animals tested) [1, 11] | scMet (number of animals protected/number of animals tested) [2, 6] | scMet (number of animals protected/number of animals tested) [2, 7] | scMet (number of animals protected/number of animals tested) [2, 8] | scMet (number of animals protected/number of animals tested) [2, 9] | scMet (number of animals protected/number of animals tested) [2, 10] | scMet (number of animals protected/number of animals tested) [2, 11] | melting point | responders at 30 mg/kg ([3]; 0.5 h) | responders at 30 mg/kg ([3]; 1 h) | responders at 30 mg/kg ([3]; 2 h) | responders at 30 mg/kg ([3]; 4 h) | responders at 30 mg/kg ([3]; […]) | PI, protective index (PI = TD50/ED50) in the scMet test [4] | TD50 (in vivo) | other results |
| --- | --- | --- | --- | --- | --- | --- | --- | --- | --- | --- | --- | --- | --- | --- | --- | --- | --- | --- | --- | --- | --- |
| CCC(C)C(CC)C(=O)Nc1ccc(S(N)(=O)=O)cc1 (stereo not drawn) [Compound 19, 2-Ethyl-3-methyl-N-(4-sulfamoyl-phenyl)-pentanamide] | 0/1 | 0/1 | 3/7 | 3/3 | 4/5 | 1/1 | 0/1 0/1 0/1 | 0/1 0/1 0/1 | 0/1 0/1 0/1 | 0/1 0/1 0/1 | 0/1 0/1 0/1 | 0/1 0/1 0/1 | 203 to 205 °C | 0% | 75% | 100% | 75% | 0% |  |  |  |
| CC(C)(C)C(=O)NCc1ccc(S(N)(=O)=O)cc1 [Compound 26, 2,2-Dimethyl-N-(4-sulfamoyl-benzyl)-propionamide] | 0/1 | 0/1 | 0/3 | 0/3 | 0/1 | 0/1 | 0/1 0/1 0/1 | 0/1 0/1 0/1 | 0/1 0/1 0/1 | 0/1 0/1 0/1 | 0/1 0/1 0/1 | 0/1 0/1 0/1 | 157 to 158 °C |  |  |  |  |  |  |  |  |
| CC(C)(C)CC(=O)NCc1ccc(S(N)(=O)=O)cc1 [Compound 27, 3,3-Dimethyl-N-(4-sulfamoyl-benzyl)-butyramide] | 0/1 | 0/1 | 0/3 | 1/3 | 0/1 | 1/1 | 0/1 0/1 0/1 | 0/1 0/1 0/1 | 0/1 0/1 0/1 | 0/1 0/1 0/1 | 0/1 0/1 0/1 | 0/1 0/1 0/1 | 205 to 207 °C | 0% | 25% | 50% | 50% | 0% |  |  |  |
| CCC(CC)C(=O)NCc1ccc(S(N)(=O)=O)cc1 [Compound 28, 2-Ethyl-N-(4-sulfamoyl-benzyl)-butyramide] | 0/1 | 0/1 | 3/3 | 1/3 | 1/1 | 1/1 | 0/1 0/1 0/1 | 0/1 0/1 0/1 | 0/1 0/1 0/1 | 0/1 0/1 0/1 | 0/1 0/1 0/1 | 0/1 0/1 0/1 | 148 to 150 °C | 25% | 50% | 0% | 0% | 25% | >2 | > 500 mg/kg | ED50 [5]: > 250 mg/kg; ED50 [3, 12]: 24.7 mg/kg |
| CCC(CC)C(=O)Nc1ccc(S(N)(=O)=O)cc1 [Compound 11, 2-Ethyl-N-(4-sulfamoyl-phenyl)-butyramide] | 1/1 | 1/1 | 3/3 | 3/3 | 1/1 | 1/1 | 0/1 0/1 0/1 | 0/1 0/1 0/1 | 0/1 0/1 0/1 | 0/1 0/1 0/1 | 0/1 0/1 0/1 | 0/1 0/1 0/1 |  | 75% | 100% | 100% | 100% | 25% | >2 | > 500 mg/kg | activity in the scMet test ([4]; doses up to 250 mg/kg): inactive; ED50 [5]: > 250 mg/kg; ED50 [3, 12]: ~10 mg/kg; anticonvulsant potency relative to valproic acid (times greater) ([3]; rat-MES, versus VPA): 49 times; rat-MES PI relative to VPA (times higher) ([3]; rat-MES, versus VPA): about 31 times; MES ED50 ([3]; rats dosed orally, interval in parentheses = 95% confidence interval): 9.9 (6.5-14.5) mg/kg |
| CCCC(C(=O)Nc1ccc(S(N)(=O)=O)cc1)C(C)CC (stereo not drawn) [Compound 21, 2-propyl-3-Methyl-N-(4-sulfamoyl-phenyl)-pentanamide] | 0/1 | 0/1 | 1/3 | 2/3 | 1/1 | 1/1 | 0/1 0/1 0/1 | 0/1 0/1 0/1 | 0/1 0/1 0/1 | 0/1 0/1 0/1 | 0/1 0/1 0/1 | 0/1 0/1 0/1 | 223 to 226 °C | 25% | 25% | 50% | 25% | 0% |  |  |  |

Reference: US20120264827A1, “SULFANYLAMIDE DERIVATIVES, USES THEREOF AND COMPOSITIONS COMPRISING THEM” (YISSUM RESEARCH DEVELOPMENT COMPANY OF THE HEBREW …, priority 2009, published 2012)
